Source: patent publication US20120165230A1, “BIOLOGICALLY PRODUCED CYCLIC AFFINITY TAGS” (LanthioPep B.V., priority 2009, published 2012)

Tested on: L. lactis MG1363
Test: Antimicrobial activity: growth inhibition in two-fold dilution series in microwell plate, OD600 after 6 hours
Type: cell-based, Lactococcus lactis
Details: supernatant treated with trypsin to cleave off leader, two-fold dilutions
Experimental: FIG. 2. Antimicrobial activity of a truncated nisin mutant containing HPQF (SEQ ID NO:7) in ring C. Lactococcus lactis containing a first plasmid encoding NisB, NisT and NisC and a second plasmid encoding […] (SEQ ID NO:44) was induced. The supernatant was treated with trypsin to cleave off the leader peptide. Series of two-fold dilutions were made in a microwell plate and the peptide's capacity to inhibit the growth of L. lactis MG1363 was tested by measuring OD 600 after six hours of incubation. ∘: control with PBS, ▪: truncated nisin mutant, ▾: supernatant of nisin A-producing L. lactis NZ9700.
The leader was cleaved off with trypsin and the antimicrobial activity was measured as follows: In a microwell plate, 200 μl of supernatant of nisin fusion strain and in other wells, 200 μl of control (positive, e.g., filtered sup of NZ9700 and negative) solutions was added to the wells of the first column. 100 μl medium was added to the remaining empty wells. For each row, 100 μl from the first column was added to the second and, after mixing, from the second to the third, etc., leading to two-fold dilution steps. 100 μl of sensitive strain. MG1363 was added to all wells at low density, OD600: 0.05-0.1. After 6 hours, OD600 was measured.

ITSISLCTPGCKTHPQFCNMKEQKLISEED [H14, P15, Q16, F17, ΔG18 mutant of nisin (1-22) with internal strep-tag, coupled to external myc-tag EQKLISEED]
antimicrobial activity (inhibition of growth of L. lactis MG1363) (FIG. 2): clearly has antimicrobial activity | antimicrobial activity (inhibition of growth of L. lactis MG1363) (FIG. 2, listed as truncated nisin mutant): still has activity
